The target in assay [1] is T1, human CRFR1 (Homo sapiens, UniProt P34998).
T1 sequence (P34998 24-415): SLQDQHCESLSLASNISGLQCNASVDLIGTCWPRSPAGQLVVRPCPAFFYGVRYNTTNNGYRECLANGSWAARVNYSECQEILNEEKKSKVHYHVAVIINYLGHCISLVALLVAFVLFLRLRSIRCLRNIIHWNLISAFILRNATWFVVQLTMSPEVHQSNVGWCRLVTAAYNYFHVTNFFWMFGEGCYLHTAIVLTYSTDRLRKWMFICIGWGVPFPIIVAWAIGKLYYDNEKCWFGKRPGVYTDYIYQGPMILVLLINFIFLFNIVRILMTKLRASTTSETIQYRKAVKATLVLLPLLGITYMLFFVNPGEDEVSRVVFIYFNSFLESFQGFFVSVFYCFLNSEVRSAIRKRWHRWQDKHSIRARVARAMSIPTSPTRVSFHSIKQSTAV
It counts as binding. The note with it: for inhibition at 0.5 µM: read-out: Inhibition of [125I]-Tyr0-sauvagine specific binding; for Binding affinity fold lower than that of antalarmin: relative to antalarmin.

Assay [2] deals with T1, human CRFR1.

Each structure is given as a SMILES string. A value given as a limit tells only on which side of the number the result lay.

Take `CCCCN(CC)c1nc(C)nc2c1c(C)c(C)n2-c1c(C)cc(C)cc1C` [antalarmin, reference compound]: in assay [1], the Ki is 16.2 nM. Besides, in assay [2], the IC50 worked out at 26 nM.
As to `CCN(CC)c1nc(C)nc2c1sc(=S)n2-c1ccc(OC)cc1OC` [5b, 7-(Diethylamino)-3-(2,4-dimethoxyphenyl)-5-methylthiazolo[4,5-d]pyrimidine-2(3H)-thione], in assay [1], the Ki turned out to be 84.5 nM, the inhibition at 0.5 µM was more than 50% and the “Binding affinity fold lower than that of antalarmin” value is 5 fold.
In the same order, the values of `CCCCN(CCCC)c1nc(C)nc2c1sc(=S)n2-c1ccc(OC)cc1OC` [5d, 7-(Dibutylamino)-3-(2,4-dimethoxyphenyl)-5-methylthiazolo[4,5-d]pyrimidine-2(3H)-thione] are 91.2 nM, more than 50% and 6 fold.
Consider `CCCN(CCC)c1nc(C)nc2c1sc(=O)n2-c1ccc(OC)cc1OC` [8c, 3-(2,4-Dimethoxyphenyl)-7-(dipropylamino)-5-methylthiazolo[4,5-d]pyrimidin-2(3H)-one], for which, in assay [1], affinity was put at a Ki of 32.1 nM, the inhibition at 0.5 µM was more than 50% and the “Binding affinity fold lower than that of antalarmin” value is reported as 2 fold. Besides, in assay [2], it took 2150 nM to reach half-maximal inhibition (IC50). The “Times less potent than antalarmin to inhibit CRF-stimulated cAMP accumulation” value in assay [2] (relative to antalarmin) is recorded as 100 times.
As to `CCCCN(CC)c1nc(C)nc2c1sc(=S)n2-c1ccc(OC)cc1OC` [5e, 7-(Butyl(ethyl)amino)-3-(2,4-dimethoxyphenyl)-5-methylthiazolo[4,5-d]pyrimidine-2(3H)-thione], in assay [1], the Ki is 170 nM, the inhibition at 0.5 µM was more than 50% and the “Binding affinity fold lower than that of antalarmin” value worked out at 10 fold.
Regarding `CCCCN(CCCC)c1nc(C)nc2c1sc(=O)n2-c1ccc(OC)cc1OC` [8d, 7-(Dibutylamino)-3-(2,4-dimethoxyphenyl)-5-methylthiazolo[4,5-d]pyrimidin-2(3H)-one], the inhibition at 0.5 µM in assay [1] is less than 50%.
The same measure, in the same setting: the figure for `CCCNc1nc(C)nc2c1sc(=O)n2-c1ccc(OC)cc1OC` [8a, 3-(2,4-Dimethoxyphenyl)-5-methyl-7-(propylamino)thiazolo[4,5-d]pyrimidin-2(3H)-one] is less than 50%; for `CCCNc1nc(C)nc2c1sc(=S)n2-c1ccc(OC)cc1OC` [5a, 3-(2,4-Dimethoxyphenyl)-5-methyl-7-(propylamino)thiazolo[4,5-d]pyrimidine-2(3H)-thione] it is less than 50%; for `CCN(CC)c1nc(C)nc2c1sc(=O)n2-c1ccc(OC)cc1OC` [8b, 7-(Diethylamino)-3-(2,4-dimethoxyphenyl)-5-methylthiazolo[4,5-d]pyrimidin-2(3H)-one] it is less than 50%.

For orientation: Ki means the equilibrium dissociation constant of an inhibitor or competing ligand from its target. Higher therefore signals weaker binding. One may read the IC50 as the concentration at which inhibition is half-maximal. The low end stands for greater potency in that assay, the high end for weaker potency in that assay. The term inhibition denotes the share of the control response that was lost under treatment.

Values taken from article PMC8387444 (Bioorganic chemistry, 2021).
